Results as given in patent US11773368B2, “Culture method for differentiating primordial germ cells into functionally mature oocytes” (TOKYO UNIVERSITY OF AGRICULTURE, priority 2015, dated 2023).

Tested on: primordial germ cells in gonads from female mouse fetuses at 12.5 dpc
Experiment: In vitro organ culture of gonad (secondary follicle formation)
Assay type: cell-based
Settings: (vii) FBS/1 μM MPP group, 1 μM day 5-11
Description: For the medium of the organ culture, the basal medium supplemented with FBS (Gibco, Thermo Fisher Scientific Inc.), SPS (SAGE In vitro Fertilization), the estrogen receptor antagonist, 7α, 17β-[9-([4,4,5,5,5-pentafluoropentyl]sulfinyl)nonyl]estra-1,3,5(10)-triene-3,17-diol; ICI 182,780 (ICI; Tocris Bioscience), 4-hydroxytamoxifen (Sigma-Aldrich), and MPP (Methylpiperidino pyrazole; Cayman Chemical) were added at the indicated concentrations for each experimental group below. The α-MEM medium (Gibco, Thermo Fisher Scientific Inc.) supplemented with 1.5 mM 2-O-α-d glucopyranosyl-1-ascorbic acid (Tokyo Chemical Industry), 10 units/mL penicillin, and 10 μg/mL streptomycin (Sigma-Aldrich) was used as a basal medium (referred to the basal medium hereafter as α-MEM).
ICI 182,780 and 4-hydroxytamoxifen was prepared as follows. ICI 182,780 and 4-hydroxytamoxifen was diluted to 100 mM using DMSO, and cryopreserved stock was prepared. MPP was diluted to 10 mM using DMSO, and cryopreserved stock was prepared. 1 mM solutions of ICI 182, 780 and 4-hydroxytamoxifen were prepared by diluting the 100 mM stocks 100-fold with DMSO just before use and were added to the medium at the indicated final concentrations for each experimental group. MPP was added to the medium at 1 μM as the final concentration just before use.
The gonads for the organ culture were collected with mesonephros or without mesonephros from female mouse fetuses at 12.5 dpc (FIG. 1a). 2.2 ml of the medium was added to each 6-well culture plate used for the organ culture. Transwell®-COL membrane (3.0-μm pore size, 24-mm diameter; Corning) was put on each well of the 6-well culture plate. The gonads were transferred on the membrane and were cultured for 17 days at 37° C. under 5% CO2 and 95% air. Approximately half of the medium in each well was replaced with fresh medium every other day. In the example in which the gonad was cultured with mesonephros, mesonephros was removed from the gonad at day 7 of the organ culture.
The in vitro organ culture of the gonads was performed according to the following conditions described below. The gonads were cultured for total 17 days in each conditions below (FIG. 2):
(i) culture for the complete 17 days period in 10% FBS containing α-MEM (α-MEM+FBS; FBS group);
(ii) culture for the complete 17 days period in 10% SPS containing α-MEM (α-MEM+SPS; SPS group);
(iii) culture for the complete 17 days period in 10% KSR containing α-MEM (α-MEM+KSR; KSR group);
(iv) culture in 10% FBS containing α-MEM for 4 days with a shift to 10% SPS containing α-MEM for 6 days from day 5 and a shift to 10% FBS containing α-MEM until day 17 from day 11 (αMEM+FBS/SPS; FBS/SPS group);
(v) culture in 10% FBS containing α-MEM for 4 days with a shift to 10% FBS containing α-MEM with the addition of 10 nM, 100 nM, 1 μM, 5 μM, or 10 μM (final concentration) ICI for 6 days from day 5 and a shift to 10% FBS containing α-MEM until day […] (αMEM+FBS/10 nM ICI; FBS/10 nM ICI group, αMEM+FBS/100 nM ICI; FBS/100 nM ICI group, αMEM+FBS/1 μM ICI; FBS/1 μM ICI group, αMEM+FBS/5 μM ICI; FBS/5 μM ICI group, or αMEM+FBS/10 μM ICI; FBS/10 μM ICI group);
(vi) culture in 10% FBS containing α-MEM for 4 days with a shift to 10% FBS containing α-MEM with the addition of 1 μM (final concentration) 4-hydroxytamoxifen for 6 days from day 5 and a shift to 10% FBS containing α-MEM until day 17 from day 11 (αMEM+FBS/1 μM Tamoxifen; FBS/1 μM Tamoxifen group);
(vii) culture in 10% FBS containing α-MEM for 4 days with a shift to 10% FBS containing α-MEM with the addition of 1 μM (final concentration) MPP for 6 days from day 5 and a shift to 10% FBS containing α-MEM until day 17 from day 11 (αMEM+FBS/1 μM MPP; FBS/1 μM MPP group).
Vitrification and warming were conducted as follows by reference to Wang, X. et al., “Successful in vitro culture of pre-antral follicles derived from vitrified murine ovarian tissue: oocyte maturation, fertilization, and live births.” Reproduction 141, 183-191 (2011). […]

SMILES: Cc1c(-c2ccc(O)cc2)nn(-c2ccc(O)cc2)c1-c1ccc(OCCN2CCCCC2)cc1 [MPP, 4-[1-(4-hydroxyphenyl)-4-methyl-5-[4-[2-(1-piperidinyl)ethoxy]phenyl]-1H-pyrazol-3-yl]-phenol]
- secondary follicles collected from one ovary: 15
